We go through four compounds from ChEMBL document CHEMBL1955764, “Synthesis and biological activity of 23-ethylidene-26-hydroxy-22-oxocholestane derivatives from spirostanic sapogenins” (Eur J Med Chem, 2012).

Structures are written as SMILES. Calls of active or inactive are those of the source. No cut-off for these calls is given here.

One assay deals with CCRF-CEM. As to the kind of experiment: Cell cycle arrest in human CEM cells assessed as decrease of procaspase 3 level at 50 uM after 24 hrs by Western blotting analysis. In kind it is functional, cell-based.
Settings: not given
Consider `C/C=C(\C[C@@H](C)CO)C(=O)[C@@H](C)[C@H]1[C@@H](OC(C)=O)C[C@H]2[C@@H]3CC=C4C[C@@H](OC(C)=O)CC[C@]4(C)[C@H]3CC[C@]12C`, for which the outcome was Active.
Same read-out and setting: as for `C/C=C(\C[C@@H](C)CO)C(=O)[C@@H](C)[C@H]1[C@@H](OC(C)=O)C[C@H]2[C@@H]3CC[C@H]4C[C@@H](OC(C)=O)CC[C@]4(C)[C@H]3CC[C@]12C`, the entry is “Active”.

The next assay concerns BJ. In words: Cytotoxicity against human BJ cells after 72 hrs by calcein AM assay.
Settings: not given
In kind it is cell-based.
In general, IC50 refers to the concentration at which inhibition is half-maximal. Regarding `CC(C)CCC[C@@H](C)[C@H]1CC[C@H]2[C@@H]3CC=C4C[C@@H](O)CC[C@]4(C)[C@H]3CC[C@]12C` [CHOLESTEROL], the half-maximal inhibitory concentration (IC50) was more than 50 µM.
Same read-out and setting: as for `CC(=O)O[C@H]1CC[C@@]2(C)[C@@H](CC[C@@H]3[C@@H]2CC[C@]2(C)[C@@H]([C@H](C)C(=O)C4=C(C)OC[C@H](C)C4)[C@@H](OC(C)=O)C[C@@H]32)C1`, the figure is more than 50 µM.
Still for that read-out and setting: the same measure for `C/C=C(\C[C@@H](C)CO)C(=O)[C@@H](C)[C@H]1[C@@H](OC(C)=O)C[C@H]2[C@@H]3CC=C4C[C@@H](OC(C)=O)CC[C@]4(C)[C@H]3CC[C@]12C`: more than 50 µM; for `C/C=C(\C[C@@H](C)CO)C(=O)[C@@H](C)[C@H]1[C@@H](OC(C)=O)C[C@H]2[C@@H]3CC[C@H]4C[C@@H](OC(C)=O)CC[C@]4(C)[C@H]3CC[C@]12C`: more than 50 µM.

For a further assay, the system named is CCRF-CEM. As to the kind of experiment: Cell cycle arrest in human CEM cells assessed as accumulation at G2/M phase at 5 to 50 uM after 24 hrs using propidium iodide staining by flow cytometric analysis.
Settings: not given
In kind it is functional, cell-based. (A flow cytometer gives signals particle by particle.)
Take `C/C=C(\C[C@@H](C)CO)C(=O)[C@@H](C)[C@H]1[C@@H](OC(C)=O)C[C@H]2[C@@H]3CC=C4C[C@@H](OC(C)=O)CC[C@]4(C)[C@H]3CC[C@]12C`: the result was Active.
Same read-out and setting: the same measure for `C/C=C(\C[C@@H](C)CO)C(=O)[C@@H](C)[C@H]1[C@@H](OC(C)=O)C[C@H]2[C@@H]3CC[C@H]4C[C@@H](OC(C)=O)CC[C@]4(C)[C@H]3CC[C@]12C`: “Active”.

In the next assay the test system is CCRF-CEM. As to the kind of experiment: Cell cycle arrest in human CEM cells assessed as increase of cleaved of PARP level at 50 uM after 24 hrs by Western blotting analysis.
Settings: not given
It counts as functional, cell-based. In general terms: A western blot detects proteins with antibodies after separation by electrophoresis.
On to `C/C=C(\C[C@@H](C)CO)C(=O)[C@@H](C)[C@H]1[C@@H](OC(C)=O)C[C@H]2[C@@H]3CC=C4C[C@@H](OC(C)=O)CC[C@]4(C)[C@H]3CC[C@]12C`, for which the result was Active.
Still for that read-out and setting: the same measure for `C/C=C(\C[C@@H](C)CO)C(=O)[C@@H](C)[C@H]1[C@@H](OC(C)=O)C[C@H]2[C@@H]3CC[C@H]4C[C@@H](OC(C)=O)CC[C@]4(C)[C@H]3CC[C@]12C`: “Active”.

In a further assay the test system is HeLa. As to the kind of experiment: Cytotoxicity against human HeLa cells after 72 hrs by calcein AM assay.
Settings: not given
In kind it is functional, cell-based.
On to `CC(C)CCC[C@@H](C)[C@H]1CC[C@H]2[C@@H]3CC=C4C[C@@H](O)CC[C@]4(C)[C@H]3CC[C@]12C` [CHOLESTEROL], for which the IC50 is more than 50 µM.
On the same count and under the same terms, as for `CC(=O)O[C@H]1CC[C@@]2(C)[C@@H](CC[C@@H]3[C@@H]2CC[C@]2(C)[C@@H]([C@H](C)C(=O)C4=C(C)OC[C@H](C)C4)[C@@H](OC(C)=O)C[C@@H]32)C1`, the figure is more than 50 µM.
The same measure, in the same setting: the same measure for `C/C=C(\C[C@@H](C)CO)C(=O)[C@@H](C)[C@H]1[C@@H](OC(C)=O)C[C@H]2[C@@H]3CC=C4C[C@@H](OC(C)=O)CC[C@]4(C)[C@H]3CC[C@]12C`: more than 50 µM.
The same measure, in the same setting: the same measure for `C/C=C(\C[C@@H](C)CO)C(=O)[C@@H](C)[C@H]1[C@@H](OC(C)=O)C[C@H]2[C@@H]3CC[C@H]4C[C@@H](OC(C)=O)CC[C@]4(C)[C@H]3CC[C@]12C`: more than 50 µM.

Another assay has as its system CCRF-CEM. As to the kind of experiment: Cell cycle arrest in human CEM cells assessed as accumulation at G0/G1 phase at 5 to 50 uM after 24 hrs using propidium iodide staining by flow cytometric analysis. In kind it is functional, cell-based.
Settings: not given
For `C/C=C(\C[C@@H](C)CO)C(=O)[C@@H](C)[C@H]1[C@@H](OC(C)=O)C[C@H]2[C@@H]3CC=C4C[C@@H](OC(C)=O)CC[C@]4(C)[C@H]3CC[C@]12C`, the outcome was Active.
Regarding `C/C=C(\C[C@@H](C)CO)C(=O)[C@@H](C)[C@H]1[C@@H](OC(C)=O)C[C@H]2[C@@H]3CC[C@H]4C[C@@H](OC(C)=O)CC[C@]4(C)[C@H]3CC[C@]12C`, the outcome was Active.

The subject of a further assay is CCRF-CEM. As to the kind of experiment: Induction of apoptosis in human CEM cells assessed as increase of caspase 3/7 activity using Ac-DEVD-AMC as substrate at 50 uM after 24 hrs relative to control. It counts as functional.
Settings: not given
Take `C/C=C(\C[C@@H](C)CO)C(=O)[C@@H](C)[C@H]1[C@@H](OC(C)=O)C[C@H]2[C@@H]3CC=C4C[C@@H](OC(C)=O)CC[C@]4(C)[C@H]3CC[C@]12C`: the “fold change (FC)” value is 2.4.
Take `C/C=C(\C[C@@H](C)CO)C(=O)[C@@H](C)[C@H]1[C@@H](OC(C)=O)C[C@H]2[C@@H]3CC[C@H]4C[C@@H](OC(C)=O)CC[C@]4(C)[C@H]3CC[C@]12C`: the “fold change (FC)” value worked out at 4.3.

A further assay deals with CCRF-CEM. In words: Cell cycle arrest in human CEM cells assessed as accumulation at G1 phase after 24 hrs using propidium iodide staining by flow cytometric analysis.
Settings: not given
It counts as functional, cell-based.
As to `C/C=C(\C[C@@H](C)CO)C(=O)[C@@H](C)[C@H]1[C@@H](OC(C)=O)C[C@H]2[C@@H]3CC=C4C[C@@H](OC(C)=O)CC[C@]4(C)[C@H]3CC[C@]12C`, the Activity entry is “Dose-dependent effect”.
Same read-out and setting: as for `C/C=C(\C[C@@H](C)CO)C(=O)[C@@H](C)[C@H]1[C@@H](OC(C)=O)C[C@H]2[C@@H]3CC[C@H]4C[C@@H](OC(C)=O)CC[C@]4(C)[C@H]3CC[C@]12C`, the entry is “Dose-dependent effect”.

A further assay deals with CCRF-CEM. As to the kind of experiment: Cell cycle arrest in human CEM cells assessed as accumulation at sub-G1 phase at 5 to 50 uM after 24 hrs using propidium iodide staining by flow cytometric analysis. In kind it is functional, cell-based.
Settings: not given
With `C/C=C(\C[C@@H](C)CO)C(=O)[C@@H](C)[C@H]1[C@@H](OC(C)=O)C[C@H]2[C@@H]3CC=C4C[C@@H](OC(C)=O)CC[C@]4(C)[C@H]3CC[C@]12C`, the outcome was Active.
For the compound `C/C=C(\C[C@@H](C)CO)C(=O)[C@@H](C)[C@H]1[C@@H](OC(C)=O)C[C@H]2[C@@H]3CC[C@H]4C[C@@H](OC(C)=O)CC[C@]4(C)[C@H]3CC[C@]12C`, the result was Active.

In a further assay the test system is CCRF-CEM. As to the kind of experiment: Cytotoxicity against human CEM cells after 72 hrs by calcein AM assay.
Settings: not given
In kind it is functional, cell-based.
As to `CC(C)CCC[C@@H](C)[C@H]1CC[C@H]2[C@@H]3CC=C4C[C@@H](O)CC[C@]4(C)[C@H]3CC[C@]12C` [CHOLESTEROL], the IC50 was more than 50 µM.
The same measure, in the same setting: the same measure for `CC(=O)O[C@H]1CC[C@@]2(C)[C@@H](CC[C@@H]3[C@@H]2CC[C@]2(C)[C@@H]([C@H](C)C(=O)C4=C(C)OC[C@H](C)C4)[C@@H](OC(C)=O)C[C@@H]32)C1`: 20.7 µM; for `C/C=C(\C[C@@H](C)CO)C(=O)[C@@H](C)[C@H]1[C@@H](OC(C)=O)C[C@H]2[C@@H]3CC=C4C[C@@H](OC(C)=O)CC[C@]4(C)[C@H]3CC[C@]12C`: 11.1 µM; for `C/C=C(\C[C@@H](C)CO)C(=O)[C@@H](C)[C@H]1[C@@H](OC(C)=O)C[C@H]2[C@@H]3CC[C@H]4C[C@@H](OC(C)=O)CC[C@]4(C)[C@H]3CC[C@]12C`: 5.9 µM.

The next assay has as its system CCRF-CEM. In words: Cell cycle arrest in human CEM cells assessed as increase of cleaved of PARP level after 24 hrs by Western blotting analysis. It counts as functional, cell-based.
Settings: not given
Take `C/C=C(\C[C@@H](C)CO)C(=O)[C@@H](C)[C@H]1[C@@H](OC(C)=O)C[C@H]2[C@@H]3CC=C4C[C@@H](OC(C)=O)CC[C@]4(C)[C@H]3CC[C@]12C`: the Activity entry is “Dose-dependent effect”.
For the compound `C/C=C(\C[C@@H](C)CO)C(=O)[C@@H](C)[C@H]1[C@@H](OC(C)=O)C[C@H]2[C@@H]3CC[C@H]4C[C@@H](OC(C)=O)CC[C@]4(C)[C@H]3CC[C@]12C`, the Activity result is “Dose-dependent effect”.

The next assay concerns MCF7. In words: Cytotoxicity against human MCF7 cells after 72 hrs by calcein AM assay. The conditions noted are these: MCF7, 72 h. It counts as functional, cell-based.
For `CC(C)CCC[C@@H](C)[C@H]1CC[C@H]2[C@@H]3CC=C4C[C@@H](O)CC[C@]4(C)[C@H]3CC[C@]12C` [CHOLESTEROL], the IC50 is more than 50 µM.
Same read-out and setting: as for `CC(=O)O[C@H]1CC[C@@]2(C)[C@@H](CC[C@@H]3[C@@H]2CC[C@]2(C)[C@@H]([C@H](C)C(=O)C4=C(C)OC[C@H](C)C4)[C@@H](OC(C)=O)C[C@@H]32)C1`, the figure is 35.7 µM; as for `C/C=C(\C[C@@H](C)CO)C(=O)[C@@H](C)[C@H]1[C@@H](OC(C)=O)C[C@H]2[C@@H]3CC=C4C[C@@H](OC(C)=O)CC[C@]4(C)[C@H]3CC[C@]12C`, more than 50 µM; as for `C/C=C(\C[C@@H](C)CO)C(=O)[C@@H](C)[C@H]1[C@@H](OC(C)=O)C[C@H]2[C@@H]3CC[C@H]4C[C@@H](OC(C)=O)CC[C@]4(C)[C@H]3CC[C@]12C`, 14.7 µM.

For another assay, the system named is CCRF-CEM. In words: Cell cycle arrest in human CEM cells assessed as decrease of procaspase 3 level after 24 hrs by Western blotting analysis. It counts as functional, cell-based.
Settings: not given
Take `C/C=C(\C[C@@H](C)CO)C(=O)[C@@H](C)[C@H]1[C@@H](OC(C)=O)C[C@H]2[C@@H]3CC=C4C[C@@H](OC(C)=O)CC[C@]4(C)[C@H]3CC[C@]12C`: the Activity entry is “Dose-dependent effect”.
Regarding `C/C=C(\C[C@@H](C)CO)C(=O)[C@@H](C)[C@H]1[C@@H](OC(C)=O)C[C@H]2[C@@H]3CC[C@H]4C[C@@H](OC(C)=O)CC[C@]4(C)[C@H]3CC[C@]12C`, the Activity result is “Dose-dependent effect”.
